The values below are quoted from earlier work in patent US10265413B2, “High molecular weight biodegradable gelatin-doxorubicin conjugate” (priority 2014, dated 2019).

Structures are written as SMILES.

For this data set the following is noted: cumulative doses.

Regarding `COc1cccc2c1C(=O)c1c(O)c3c(c(O)c1C2=O)C[C@@](O)(C(=O)CO)C[C@@H]3O[C@H]1C[C@H](N)[C@H](O)[C@H](C)O1` [DOX, (7S,9S)-7-[(2R,4S,5S,6S)-4-amino-5-hydroxy-6-methyloxan-2-yl]oxy-6,9,11-trihydroxy-9-(2-hydroxyacetyl)-4-methoxy-8,10-dihydro-7H-tetracene-5,12-dione], the “cumulative dose above which irreversible cardiomyopathy occurs” value is reported as over 550 mg/m^2.
